Data from US11160790B2, “Method of inhibiting Cryptococcus growth using eltrombopag” (priority 2019, dated 2021).
≈ marks a conversion by molar mass, not a printed value.

Tests used:
[1] = test system: Aspergillus fumigatus AF293; test: Microdilution assay (CLSI M27-A3/M38-A2), MIC and MFC; assay type: cell-based
Protocol: (§1) Cryptococcus and Candida species were cultured in yeast extract-peptone-dextrose (YPD) medium (containing 1% yeast extract, 2% peptone, 2% glucose, and optionally 2% agar for preparation of an agar plate). Aspergillus, Fusarium, and Trichophyton species were cultured on potato dextrose agar (PDA) plate (containing 2% potato infusion, […], and 1.5% agar). A microdilution assay was performed to determine minimum inhibitory concentration (MIC), minimum fungicidal concentration (MFC), and fractional inhibitory concentration (FIC) index (FICI) using RPMI 1640 medium buffered with MOPS. Minimal medium (containing 15 mM glucose, 10 mM magnesium sulfate, 29.4 mM potassium dihydrogen phosphate, 13 mM glycine, and 3 μM thiamine hydrochloride; pH 5.5) was used for capsule size assay and melanization assay.
(§2) To investigate the inhibitory effects of eltrombopag on the growth of fungi, microdilution assays (based on the CLSI standards M27-A3 and M38-A2) were performed with multiple pathogenic yeasts and filamentous fungi including Cryptococcus, Candida, Aspergillus, Fusarium, and Trichophyton (TABLE 1). Briefly, yeast or filamentous fungi strains at a final concentration of about 10^3 cfu/mL were inoculated in RPMI 1640 medium containing two-fold serially diluted eltrombopag (started at 64 mg/L). In addition, fungal cultures without eltrombopag were used as positive controls, while media without fungal cells and eltrombopag were used as negative controls. The 96-well plates loaded with the aforementioned cultures were incubated at 35° C. for 48 hours, and the growth of cells in each well was examined to determine the minimum inhibitory concentration (MIC) of eltrombopag, which was the lowest drug concentration at which there was no visible cell growth. Thereafter, 3 μL of the fungal culture from each well of the 96-well plates was spotted onto eltrombopag-free YPD (for yeasts) or PDA (for filamentous fungi) agar plates, which were then incubated at 35° C. for 48 hours to examine colony formation Minimum fungicidal concentration (MFC) was determined to be the lowest drug concentration at which no colonies formed. The assays were performed in triplicate.

Candida glabrata CBS138 = test: as above; assay type: cell-based; conditions: Nakaseomyces glabratus, 35° C.
Protocol: as §1, §2

Candida krusei ATCC6258 = test: as above; assay type: cell-based; conditions: Pichia kudriavzevii, 35° C.
Protocol: as §1, §2

[2] = test system: Candida lusitaniae ATCC42720; test: as above; assay type: cell-based; conditions: Clavispora lusitaniae, 35° C.
Protocol: as §1, §2

[3] = test system: Candida parapsilosis ATCC22019; test: as above; assay type: cell-based; conditions: Lodderomyces parapsilosis, 35° C.
Protocol: as §1, §2

[4] = test system: Candida tropicalis MYA3404; test: as above; assay type: cell-based; conditions: 35° C.
Protocol: as §1, §2

[5] = test system: Cryptococcus deuterogattii R265; test: as above; assay type: cell-based; conditions: 35° C.
Protocol: as §1, §2

[6] = test system: Fusarium solani Fungus III-6; test: as above; assay type: cell-based
Protocol: as §1, §2

[7] = test system: Trichophyton rubrum MYA4438; test: as above; assay type: cell-based
Protocol: as §1, §2

[8] = test system: multiple C. neoformans/C. gattii; test: Microdilution assay, summary for Cryptococcus species; assay type: cell-based
Protocol: as §1, with “Minimal medium (containing 15 mM glucose, 10 mM magnesium sulfate, 29.4 mM potassium dihydrogen phosphate, 13 mM glycine, and 3 μM thiamine hydrochloride; pH 5.5) was used for capsule size assay and melanization assay.” left out
To investigate the inhibitory effects of eltrombopag on the growth of fungi, microdilution assays (based on the CLSI standards M27-A3 and M38-A2) were performed with multiple pathogenic yeasts and filamentous fungi including Cryptococcus, Candida, Aspergillus, Fusarium, and Trichophyton (TABLE 1). […] Thereafter, 3 μL of the fungal culture from each well of the 96-well plates was spotted onto eltrombopag-free YPD (for yeasts) or PDA (for filamentous fungi) agar plates, which were then incubated at 35° C. for 48 hours to examine colony formation Minimum fungicidal concentration (MFC) was determined to be the lowest drug concentration at which no colonies formed. […]

C. neoformans H99 [9] = test: Growth kinetics in RPMI 1640 (cell density); assay type: cell-based, Cryptococcus neoformans
Protocol: To study the inhibitory effects of eltrombopag on the growth of Cryptococcus, C. neoformans H99 cells were cultured overnight at 30° C. and then washed twice with double-distilled water. The cells were diluted to 0.0005 OD600/mL with RPMI 1640 medium, and 5 mL of the cell suspension was treated with eltrombopag at 0.5, 0.25, 0.125, 0.06, or 0 mg/L and incubated at 37° C. with shaking at 150 rpm for 4 days. The cell density of the suspensions was measured every 12 hours with a SpectraMax190 microplate reader (Molecular Devices), and growth curves were plotted using Prism 5.03 (GraphPad Software, San Diego, Calif., USA). The experiments were performed in triplicate, and the results were presented as mean±standard deviation.

C. neoformans H99 [10] = test: Disk diffusion susceptibility assay; assay type: cell-based, Cryptococcus neoformans; conditions: 10 μg per disk; 25° C., 30° C. or 37° C., 48 hours
Protocol: A disk diffusion susceptibility assay was performed to further investigate the fungistatic activity of eltrombopag at different temperatures. Briefly, C. neoformans […] or C. deuterogattii 8265 was cultured overnight at 30° C., and 100 μL of the culture (at an OD600 of about 0.1) was spread on RPMI 1640 agar plates. Paper disks (with a diameter of 6 mm) were then placed on these agar plates, and either 10 μg eltrombopag (dissolved in 5 μL DMSO) or 5 μL DMSO (control) was added to each disk. The agar plates were incubated at 25° C., 30° C., or 37° C. for 48 hours and photographed.

C. neoformans H99 [11] = test: Checkerboard titration assay; assay type: cell-based, Cryptococcus neoformans; conditions: 30° C., 48 hours
Protocol: Amphotericin B plus 5-flucytosine or fluconazole are combinations often used to treat cryptococcal meningitis. To investigate the synergy between eltrombopag and existing antifungal drugs or other drugs, a checkerboard titration assay was performed on Cryptococcus. Briefly, C. neoformans […] and C. deuterogattii […] cells were cultured overnight at 30° C. and then washed twice with double-distilled water. The cells were diluted to 10^3 cfu/mL with RPMI 1640 medium, and 100 μL of the cell suspension was added to each well of a 96-well polystyrene plate. […] After incubation at 30° C. for 48 hours, the growth of cells under different treatments was assessed by measuring the light absorbance at 600 nm (OD600). This assay allows the determination of fractional inhibitory concentration index (FICI): (MICcombined of drug A/MICalone of drug A)+(MICcombined of drug B/MICalone of drug B). After the checkerboard titration assay, the cells (3 μL) in the 96-well plate were transferred to drug-free YPD agar plates. After incubation at 30° C. for 48 hours, the agar plates were photographed and assessed for cell viability.

Structure (SMILES): CC1=NN(c2ccc(C)c(C)c2)C(=O)/C1=N\Nc1cccc(-c2cccc(C(=O)O)c2)c1O [eltrombopag]
- antifungal activity [1]: no antifungal activity
- MIC ([1]; Aspergillus fumigatus, AF293, 35° C., 48 hours): > 64 µg/mL
- MFC ([1]; Aspergillus fumigatus, AF293, 35° C., 48 hours on drug-free agar): > 64 µg/mL
- MIC (Candida glabrata CBS138; CBS138, 48 h, 48 hours): ~0.25 µg/mL (≈ 0.565 µM)
- MFC (Candida glabrata CBS138; CBS138, 48 hours on drug-free agar): > 64 µg/mL
- MIC (Candida krusei ATCC6258; 48 hours): 64 µg/mL (≈ 145 µM)
- MFC (Candida krusei ATCC6258; 48 hours on drug-free agar): > 64 µg/mL
- MIC ([2]; 48 hours): 64 µg/mL (≈ 145 µM)
- MFC ([2]; 48 hours on drug-free agar): > 64 µg/mL
- MIC ([3]; 48 hours): 64 µg/mL (≈ 145 µM)
- MFC ([3]; 48 hours on drug-free agar): > 64 µg/mL
- MIC ([4]; 48 hours): 64 µg/mL (≈ 145 µM)
- MFC ([4]; 48 hours on drug-free agar): > 64 µg/mL
- MIC ([5]; 48 hours): 0.125 µg/mL (≈ 0.283 µM)
- MFC ([5]; 48 hours on drug-free agar): > 64 µg/mL
- antifungal activity [6]: no antifungal activity
- MIC ([6]; Fusarium solani, 35° C., 48 hours): > 64 µg/mL
- MFC ([6]; Fusarium solani, 35° C., 48 hours on drug-free agar): > 64 µg/mL
- MFC ([7]; MYA4438, 35° C., 48 hours on drug-free agar): > 64 µg/mL
- MIC ([7]; MYA4438, 48 h, 35° C., 48 hours): ~0.5 µg/mL (≈ 1.13 µM)
- MIC ([8]; 35° C.): ~0.125 µg/mL (≈ 0.283 µM)
- MFCs ([8]; Cryptococcus species): higher than 64 mg/L
- growth kinetics (cell density) (C. neoformans H99 [9]; 0.06 mg/L): did not affect the growth kinetics
- growth kinetics (cell density) (C. neoformans H99 [9]; 0.25 mg/L or 0.5 mg/L, 37° C., 96 hours): static growth of C. neoformans was maintained
- growth kinetics (cell density) (C. neoformans H99 [9]; 0.5, 0.25, 0.125, 0.06 mg/L, 37° C., 4 days): inhibited the growth of C. neoformans in a dose-dependent manner
- inhibition zones (C. neoformans H99 [10]): significantly larger inhibition zones were observed at 37 °C
- MICalone (C. neoformans H99 [11]): 0.25 mg/L
- MICcombined of ETP (C. neoformans H99 [11]; ETP in combination with AMB): 0.03 mg/L
- MICcombined of ETP (C. neoformans H99 [11]; ETP in combination with CsA): 0.25 mg/L
- MICcombined of ETP (C. neoformans H99 [11]; ETP in combination with FK506): 0.015 mg/L
- MICcombined of ETP (C. neoformans H99 [11]; ETP in combination with FLC): 0.03 mg/L
